Laboratory results: patent publication US20240279204A1, “NOVEL DIPHENAZINE COMPOUND, AND USE THEREOF FOR PREVENTING OR TREATING CANCER OR NEUROINFLAMMATORY DISEASES” (KOREA INSTITUTE OF OCEAN SCIENCE & TECHNOLOGY, priority 2021, published 2024)
Read-outs that look alike come from different tables or passages of the source.

Key:
[1] = tested on: NCI-H23 (lung); assay: SRB cytotoxicity assay, NCI-H23; type: cell-based, human
Experimental: (§1) A cytotoxicity test was evaluated using sulforhodamine B (SRB) assay on six human cancer cell lines. Human cancer cell lines, ACHN (kidney), NCI-H23 (lung), PC-3 (prostate), NUGC-3 (stomach), MDA-MB-231 (breast), and HCT-15 (colon) were purchased from American Type Culture Collection (ATCC). Cells were cultured in a RPMI 1640 medium added with 10% fetal bovine serum (FBS) at 37° C. in a 5% CO2 incubator. The cells (8×10^3 cells/well) were dispensed into a 96-well plate, cultured for one day, and then treated with Compounds 1-8 dissolved in 0.1% DMSO, (R)-(6-(1-((2-aminobenzoyl)oxy)ethyl)phenazine-1-carboxylic acid as Compound 9, and adriamycin as a positive control group. The cells were cultured for 48 hours, fixed with 50% trichloroacetic acid ([…]) and stained with 0.4% surfohodamine B dissolved in 1% acetic acid. Non-stained cells were removed by washing with 1% acetic acid, and cells bound to a protein were extracted with 10 mM Tris base (pH 10.5) to measure the optical density. Absorbance was measured at 540 nm using a microplate reader, and GI50 values were calculated using GraphPad Prism 4.0.

[2] = tested on: NUGC-3 (stomach); assay: SRB cytotoxicity assay, NUGC-3; type: cell-based, human; conditions: for GI50: SRB assay, 48 hours
Experimental: as §1

[3] = tested on: PC-3 (prostate); assay: SRB cytotoxicity assay, PC-3; type: cell-based, human; conditions: 48 hours
Experimental: as §1

[4] = tested on: MDA-MB-231 (breast); assay: SRB cytotoxicity assay, MDA-MB-231; type: cell-based, human
Experimental: as §1

[5] = tested on: HCT-15 (colon); assay: SRB cytotoxicity assay, HCT-15; type: cell-based, human
Experimental: as §1

[6] = tested on: ACHN (kidney); assay: SRB cytotoxicity assay, ACHN; type: cell-based, human; conditions: 48 hours
Experimental: as §1

[7] = tested on: LPS-induced BV-2 microglia; assay: NO generation inhibition in LPS-induced BV-2 microglia (Griess reagent); type: cell-based; conditions: compound 1 hour then LPS 200 ng/mL for 24 hours, nitrite by Griess reagent, read-out: IC50 (μM), NO generation inhibitory activity by activated microglia
Experimental: (§2) NO generation to confirm anti-brain neuroinflammatory activity was evaluated by measuring a nitrite concentration in the medium using a Griess reagent, and the cell viability was evaluated using MTT assay. Briefly, BV-2 microglia were cultured in a Dulbecco's modified Eagle's medium (DMEM) supplemented with 5% heat-inactivated FBS and 50 µg/mL of penicillin-streptomycin in a 5% CO2 incubator at 37° C. A 96-well plate dispensed with pre-cultured cells (2.5×10^4 cells/mL) was treated with compounds at various concentrations (10, 20, 50, and 100 μM) for 1 hour, and treated with LPS (200 ng/mL) and cultured for 24 hours. The supernatant was mixed with a Griess reagent and cultured at room temperature for 10 minutes. The nitrite concentration was determined using a sodium nitrite standard solution prepared in a cell culture medium. Absorbance was measured at a wavelength of 540 nm with a microplate reader. To evaluate the cell viability, the 96-well plate dispensed with cells (2.5×10^4 cells/mL) was treated with compounds at various concentrations (10, 20, 50, and 100 μM) for 1 hour, and treated with LPS (200 ng/mL) and cultured for 24 hours. An MTT solution (0.5 mg/mL) was added to each well and cultured at 37° C. for 4 hours. The supernatant was removed, and the formed formazan crystals were dissolved in DMSO. The absorbance was measured at 550 nm using a microplate reader. To determine the IC50 value of Compound 6, NO generation and MTT assay were performed in the same manner as described above, only with different concentrations (0.25, 0.5, and 1 μM) (Table 4). The experiment was repeated 3 times.

[8] = tested on: BV-2 microglia; assay: Cell viability of BV-2 microglia (MTT assay); type: cell-based; conditions: LPS 200 ng/mL, 24 hours
Experimental: as §2, with “To determine the IC50 value of Compound 6, NO generation and MTT assay were performed in the same manner as described above, only with different concentrations (0.25, 0.5, and 1 μM) (Table 4). The experiment was repeated 3 times.” left out

[9] = Homo sapiens, NCI-H23, 48 hours
[10] = Homo sapiens, NUGC-3, read-out: GI50, NUGC-3
[11] = Homo sapiens, MDA-MB-231, 48 hours

SMILES	IC50 ([7]; Mus musculus)	GI50 [1, 9]	GI50 [2, 10]	GI50 ([3]; Homo sapiens)	GI50 [4, 11]	GI50 ([5]; Homo sapiens, HCT-15, 48 hours)	GI50 ([6]; Homo sapiens, ACHN)	GI50 ([1]; 48 hours)	GI50 ([2]; read-out: GI50, NUGC-3)	GI50 [3]	GI50 ([4]; 48 hours)	GI50 ([5]; 48 hours)	GI50 [6]	IC50 [7]	cytotoxicity in cell viability test [8]	GI50 ([2]; Homo sapiens, NUGC-3, read-out: GI50 value, gastric cancer cells NUGC-3)	cytotoxicity stronger than Adriamycin, NUGC-3 ([2]; ratio of GI50 versus Adriamycin)
C[C@@H](c1cccc2nc3c(C(=O)O)cccc3nc12)c1ccc(C(=O)O)c2nc3cccc([C@@H](C)O)c3nc12 [Compound 2, 4-((S)-1-(6-carboxyphenazin-1-yl)ethyl)-6-((R)-1-hydroxyethyl)phenazine-1-carboxylic acid]	90.2 µM	> 10 µM	> 10000 nM	> 10 µM	> 10 µM	> 10 µM	> 10 µM										
C[C@@H](c1cc(C(=O)O)c2nc3cccc([C@@H](C)O)c3nc2c1)c1cccc2nc3c(C(=O)O)cccc3nc12 [Compound 4, 3-((S)-1-(6-carboxyphenazin-1-yl)ethyl)-6-((R)-1-hydroxyethyl)phenazine-1-carboxylic acid]	126 µM	> 10 µM	> 10000 nM	> 10 µM	> 10 µM	> 10 µM	> 10 µM										
C[C@@H](O)c1cccc2nc3c(C(=O)O)cccc3nc12 [Compound 8, (R)-Saphenic acid]								> 10 µM	> 10000 nM	> 10 µM	> 10 µM	> 10 µM	> 10 µM	16.3 µM			
COc1cccc2c1C(=O)c1c(O)c3c(c(O)c1C2=O)C[C@@](O)(C(=O)CO)C[C@@H]3O[C@H]1C[C@H](N)[C@H](O)[C@H](C)O1 [ADR, Adriamycin, reference compound]		0.16 µM	150 nM	0.16 µM	0.15 µM	0.17 µM	0.17 µM										
C[C@H](c1cccc2nc3c(C(=O)O)cccc3nc12)c1ccc(C(=O)O)c2nc3cccc([C@@H](C)O)c3nc12 [Compound 1, 4-((R)-1-(6-carboxyphenazin-1-yl)ethyl)-6-((R)-1-hydroxyethyl)phenazine-1-carboxylic acid]	166 µM	> 10 µM	> 10000 nM	> 10 µM	> 10 µM	> 10 µM	> 10 µM										
CC(=O)c1cccc2nc3c(C(=O)O[C@H](C)c4cccc5nc6c(C(=O)O)cccc6nc45)cccc3nc12 [Compound 7, (R)-6-(1-((6-acetylphenazine-1-carbonyl)oxy)ethyl)phenazine-1-carboxylic acid]		0.0426 µM	34.9 nM	0.0465 µM	0.0523 µM	0.0601 µM	0.0717 µM										
CC(=O)c1cccc2nc3c(C(=O)O)ccc([C@H](C)c4cccc5nc6c(C(=O)O)cccc6nc45)c3nc12 [Compound 3, (R)-6-acetyl-4-(1-(6-carboxyphenazin-1-yl)ethyl)phenazine-1-carboxylic acid]	34.7 µM	> 10 µM	> 10000 nM	> 10 µM	> 10 µM	> 10 µM	> 10 µM										
C[C@@H](OC(=O)c1ccccc1N)c1cccc2nc3c(C(=O)O)cccc3nc12 [Compound 9]								> 10 µM	> 10000 nM	> 10 µM	> 10 µM	> 10 µM	> 10 µM	23.5 µM			

More lines, main results first:

IC50 ([7]; Mus musculus)	SMILES	GI50 [1, 9]	GI50 [2, 10]	GI50 ([3]; Homo sapiens)	GI50 [4, 11]	GI50 ([5]; Homo sapiens, HCT-15, 48 hours)	GI50 ([6]; Homo sapiens, ACHN)	GI50 ([1]; 48 hours)	GI50 ([2]; read-out: GI50, NUGC-3)	GI50 [3]	GI50 ([4]; 48 hours)	GI50 ([5]; 48 hours)	GI50 [6]	IC50 [7]	cytotoxicity in cell viability test [8]	GI50 ([2]; Homo sapiens, NUGC-3, read-out: GI50 value, gastric cancer cells NUGC-3)	cytotoxicity stronger than Adriamycin, NUGC-3 ([2]; ratio of GI50 versus Adriamycin)
0.3 µM	C[C@@H](O)c1cccc2nc3c(C(=O)O[C@H](C)c4cccc5nc6c(C(=O)O)cccc6nc45)cccc3nc12 [Compound 6, 6-((R)-1-((6-((R)-1-hydroxyethyl)phenazine-1-carbonyl)oxy)ethyl)phenazine-1-carboxylic acid]	0.0096 µM	7.7 nM	0.0096 µM	0.0096 µM	0.0096 µM	0.0135 µM								strong cytotoxicity up to a concentration of 1 μM	7.7 nM	19 times
27.4 µM	C[C@H](c1cc([C@@H](C)O)c2nc3cccc(C(=O)O)c3nc2c1)c1cccc2nc3c(C(=O)O)cccc3nc12 [Compound 5, 8-((R)-1-(6-carboxyphenazin-1-yl)ethyl)-6-((R)-1-hydroxyethyl)phenazine-1-carboxylic acid]	> 10 µM	> 10000 nM	> 10 µM	> 10 µM	> 10 µM	> 10 µM										
